pIC50: −log10 of the molar value.
Columns and labels:
[1] = tested on: NIH/3T3 cells transfected with control vector (MOCK); assay: NIH/3T3 mock cell proliferation assay (CTG, counter assay); format: cell-based; settings: Mus musculus, NIH3T3; 72-hr incubation, CellTiter Glo; counter assay for general toxicity
Protocol: NIH/3T3 Mock Cell Proliferation Assay
In day 1, 90 μL of cell suspension (NIH/3T3 cells transfected with the same control vector as in the above two proliferation assays) (total 30,000 cells per well in growth medium (DMEM containing 1% Glutamax, 10% FBS and 1% Pen/Strep)) was seeded in a 96-well plate and then incubated overnight at 37° C. and 5% CO2. In day 2, 10 μL of growth medium containing 10-fold stock solution of testing compound was added into cell cultures (9 dose points with 3× serial dilution, starting with 30 μM, 0.3% DMSO final). After 72-hr incubation at 37° C. and 5% CO2, in day 5 a volume of 50 μL CellTiter Glo (CTG) reagent was added into cell-containing 96-well plate and the plate was incubated at room temperature for 10 minutes before RLUs (relative light unit) were measured on a microplate reader with luminescence detection module. The RLU value was normalized to survival % and concentration-response curve was plotted using Prism to calculate IC50 (M), pIC50 (−log IC50) and HillSlope value.

[2] = biological target: T1, human FGFR3 wild type enzyme (cytoplasmic domain) (Homo sapiens, UniProt P22607); assay: FGFR3 wild type mobility shift assay (enzymatic assay, Caliper); format: biochemical; settings: 75 μM ATP, 50 minutes at 30° C.
T1 construct: human FGFR3 wild type enzyme (cytoplasmic domain, from Cama Biosciences); purchased Carna Biosciences
Protocol: FGFR3 Wild Type Mobility Shift Assay (Enzymatic Assay)
(§1) In a final reaction volume of 25 μL, 0.04 ng/μL human FGFR3 wild type enzyme (cytoplasmic domain, from Cama Biosciences) was incubated with 75 μM ATP, 1 μM FL-peptide 30 substrate and 250 nL of testing compound (1% DMSO final) in assay buffer (100 mM HEPES pH 7.4, 10 mM MgCl2, 0.003% Brij35, 1 mM DTT). After incubation for 50 minutes at 30° C. the reaction was stopped with 10 μL of 0.5M EDTA pH 8.0, and then L of reaction mixture was transferred to reading plate and measured on Caliper EZ reader II.

[3] = biological target: T2, human FGFR3 V555M enzyme (cytoplasmic domain carrying V555M mutation) (Homo sapiens, UniProt P22607, V555M); assay: FGFR3 V555M mobility shift assay (enzymatic assay, Caliper); format: biochemical; settings: 30 μM ATP, 45 minutes at 30° C.
T2 construct: cytoplasmic domain carrying V555M mutation, from Carna Biosciences; purchased Carna Biosciences
Protocol: FGFR3 V555M Mobility Shift Assay (Enzymatic Assay)
as §1, with “FGFR3 V555M” for “FGFR3 wild type”, “(cytoplasmic domain carrying V555M mutation,” for “(cytoplasmic domain,”, “from Carna” for “from Cama”, “with 30” for “with 75”, “for 45” for “for 50”

T2 sequence (P22607 397-806 V555M limits assumed): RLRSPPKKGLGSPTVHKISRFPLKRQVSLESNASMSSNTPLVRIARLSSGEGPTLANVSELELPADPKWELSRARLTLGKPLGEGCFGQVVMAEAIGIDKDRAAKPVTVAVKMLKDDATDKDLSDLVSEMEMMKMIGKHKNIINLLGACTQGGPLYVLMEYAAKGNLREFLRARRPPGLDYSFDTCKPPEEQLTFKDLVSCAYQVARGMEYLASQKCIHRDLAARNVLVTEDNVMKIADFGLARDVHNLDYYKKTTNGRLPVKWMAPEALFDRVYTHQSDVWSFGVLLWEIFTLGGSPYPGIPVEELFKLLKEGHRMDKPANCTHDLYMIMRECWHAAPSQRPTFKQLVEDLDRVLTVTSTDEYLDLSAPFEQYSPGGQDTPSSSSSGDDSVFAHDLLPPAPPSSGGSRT
T1 sequence (P22607 397-806 limits assumed): as the sequence (P22607 397-806 V555M limits assumed) above, with M159V counted along it

| Structure (SMILES) | pIC50 [1] | pIC50 [2] | pIC50 [3] |
| --- | --- | --- | --- |
| CCn1cc2[nH]c(=O)c(-c3nc4cc(OC)c(OC)cc4[nH]3)c(N[C@@H](C)c3cocn3)c2n1 (single isomer, unassigned) [Compound 5A, (S*)-6-(5,6-Dimethoxy-H-benzo[d]imidazol-2-yl)-2-ethyl-7-((1-(oxazol-4-yl)ethyl)-amino)-2H-pyrazolo[4,3-b]pyridin-5 (4H)-one] | 6.42 |  |  |
| CC(C)[C@H](Nc1c(-c2nc3ccc(C(N)=O)cc3[nH]2)c(=O)[nH]c2cn(C)nc12)c1ncccn1 (single isomer, unassigned) [Compound 9, (S*)-2-(2-methyl-7-((2-methyl-1-(pyrimidin-2-yl)propyl)amino)-5-oxo-4,5-dihydro-2H-pyrazolo[4,3-b]pyridin-6-yl)-1H-benzo[d]imidazole-6-carboxamide] | 5.57 |  |  |
| CC(C)[C@H](Nc1c(-c2nc3ccc(C(=O)N(C)C)cc3[nH]2)c(=O)[nH]c2cn(C)nc12)c1ncccn1 (single isomer, unassigned) [Compound 10, (S*)—N,N-dimethyl-2-(2-methyl-7-((2-methyl-1-(pyrimidin-2-yl)propyl)amino)-5-oxo-4,5-dihydro-2H-pyrazolo[4,3-b]pyridin-6-yl)-1H-benzo[d]imidazole-6-carboxamide] | 5.86 |  |  |
| CC(C)[C@H](Nc1c(-c2nc3cnc(N(C)C)cc3[nH]2)c(=O)[nH]c2cn(C)nc12)c1ncccn1 (single isomer, unassigned) [Compound 11, (S*)-6-(6-(dimethylamino)-1H-imidazo[4,5-c]pyridin-2-yl)-2-methyl-7-((2-methyl-1-(pyrimidin-2-yl)propyl)amino)-2H-pyrazolo[4,3-b]pyridin-5 (4H)-one] | 5.73 |  |  |
| COCC(Nc1c(-c2nc3ccc(OC)cc3[nH]2)c(=O)[nH]c2cn(C)nc12)c1ncccn1 (single isomer, unassigned) [Compound 13, (R*)-7-((2-methoxy-1-(pyrimidin-2-yl)ethyl)amino)-6-(6-methoxy-1H-benzo[d]imidazol-2-yl)-2-methyl-2H-pyrazolo[4,3-b]pyridin-5 (4H)-one] |  | 5.74 | 6.43 |
| CCC(Nc1c(-c2nc3cnc(N(C)C)cc3[nH]2)c(=O)[nH]c2cn(C)nc12)c1ncccn1 (single isomer, unassigned) [Compound 14, (S*)-6-(6-(dimethylamino)-1H-imidazo[4,5-c]pyridin-2-yl)-2-methyl-7-((1-(pyrimidin-2-yl)propyl)amino)-2H-pyrazolo[4,3-b]pyridin-5 (4H)-one] |  | 7.14 | 7.93 |
| COc1ccc2[nH]c(-c3c(NC(c4ncccn4)C(C)C)c4nn(C)cc4[nH]c3=O)nc2c1 (single isomer, unassigned) [Compound 15, (S*)-6-(5-Methoxy-1H-benzo[d]imidazol-2-yl)-2-methyl-7-((2-methyl-1-(pyrimidin-2-yl)-propyl)amino)-2H-pyrazolo[4,3-b]pyridin-5 (4H)-one] | 5.87 |  |  |
| COCC(Nc1c(-c2nc3cnc(OC)cc3[nH]2)c(=O)[nH]c2cn(C)nc12)c1ncccn1 (single isomer, unassigned) [Compound 19, (S*)-7-((2-methoxy-1-(pyrimidin-2-yl)ethyl)amino)-6-(6-methoxy-1H-imidazo[4,5-c]-pyridin-2-yl)-2-methyl-2H-pyrazolo[4,3-b]pyridin-5 (4H)-one] |  | 5.91 | 6.61 |
| COCC(Nc1c(-c2nc3cnc(OC)cc3[nH]2)c(=O)[nH]c2cn(C)nc12)c1ncccn1 (single isomer, unassigned) [Compound 20, (R*)-7-((2-methoxy-1-(pyrimidin-2-yl)ethyl)amino)-6-(6-methoxy-1H-imidazo[4,5-c]-pyridin-2-yl)-2-methyl-2H-pyrazolo[4,3-b]pyridin-5 (4H)-one] |  | 7.65 | 8.33 |
| CC(C)C(Nc1c(-c2nc3cnccc3[nH]2)c(=O)[nH]c2cn(C)nc12)c1ncccn1 (single isomer, unassigned) [Compound 24, (S*)-6-(1H-imidazo[4,5-c]pyridin-2-yl)-2-methyl-7-((2-methyl-1-(pyrimidin-2-yl)propyl)-amino)-2H-pyrazolo[4,3-b]pyridin-5 (4H)-one] | 5.52 |  |  |
| COC[C@@H](Nc1c(-c2nc3cc(OC)c(OC)cc3[nH]2)c(=O)[nH]c2cn(C)nc12)c1ncccn1 (single isomer, unassigned) [Compound 25, (S*)-6-(5,6-dimethoxy-H-benzo[d]imidazol-2-yl)-7-((2-methoxy-1-(pyrimidin-2-yl)-ethyl)amino)-2-methyl-2H-pyrazolo[4,3-b]pyridin-5 (4H)-one] | 5.34 |  |  |
| COCC(Nc1c(-c2nc3cc(OC)c(OC)cc3[nH]2)c(=O)[nH]c2cn(C)nc12)c1ncccn1 (single isomer, unassigned) [Compound 26, (R*)-6-(5,6-dimethoxy-1H-benzo[d]imidazol-2-yl)-7-((2-methoxy-1-(pyrimidin-2-yl)-ethyl)amino)-2-methyl-2H-pyrazolo[4,3-b]pyridin-5 (4H)-one] |  | 6.10 | 6.66 |
| CCn1cc2[nH]c(=O)c(-c3nc4ccc(OC)cc4[nH]3)c(N[C@@H](C)c3cocn3)c2n1 (single isomer, unassigned) [Compound 33, (S*)-2-ethyl-6-(6-methoxy-1H-benzo[d]imidazol-2-yl)-7-((1-(oxazol-4-yl)ethyl)amino)-2H-pyrazolo[4,3-b]125yridine-5 (4H)-one] |  | 7.62 | 8.38 |
| COCCOc1cc2[nH]c(-c3c(NC(c4ncccn4)C(C)C)c4nn(C)cc4[nH]c3=O)nc2cc1OC (single isomer, unassigned) [Compound 35, (R*)-6-(5-methoxy-6-(2-methoxyethoxy)-1H-benzo[d]imidazol-2-yl)-2-methyl-7-((2-methyl-1-(pyrimidin-2-yl)propyl)amino)-2H-pyrazolo[4,3-b]pyridin-5 (4H)-one] |  | 6.53 | 7.09 |
| COc1cnc2nc(-c3c(NC(c4ncccn4)C(C)C)c4nn(C)cc4[nH]c3=O)[nH]c2c1 (single isomer, unassigned) [Compound 39, (R*)-6-(6-methoxy-1H-imidazo[4,5-b]pyridin-2-yl)-2-methyl-7-((2-methyl-1-(pyrimidin-2-yl)propyl)amino)-2,4-dihydro-5H-pyrazolo[4,3-b]pyridin-5-one] |  | 6.58 | 7.31 |
| CCC(Nc1c(-c2nc3cc(OC)c(OC)cc3[nH]2)c(=O)[nH]c2cn(C)nc12)c1ncccn1 (single isomer, unassigned) [Compound 43, (R*)-6-(5,6-dimethoxy-1H-benzo[d]imidazol-2-yl)-2-methyl-7-((1-(pyrimidin-2-yl)-propyl)amino)-2H-pyrazolo[4,3-b]pyridin-5 (4H)-one] |  | 6.86 | 7.36 |
| COc1cc2nc(-c3c(NC(c4ncccn4)C4CC4)c4nn(C)cc4[nH]c3=O)[nH]c2cc1OC (single isomer, unassigned) [Compound 47, (R*)-7-((cyclopropyl(pyrimidin-2-yl)methyl)amino)-6-(5,6-dimethoxy-1H-benzo[d]-imidazol-2-yl)-2-methyl-2H-pyrazolo[4,3-b]pyridin-5 (4H)-one] |  | 7.00 | 7.62 |
| CCC(Nc1c(-c2nc3ccc(OCCOC)cc3[nH]2)c(=O)[nH]c2cn(C)nc12)c1ncccn1 (single isomer, unassigned) [Compound 49, (R*)-6-(6-(2-methoxyethoxy)-1H-benzo[d]imidazol-2-yl)-2-methyl-7-((1-(pyrimidin-2-yl)propyl)amino)-2H-pyrazolo[4,3-b]pyridin-5 (4H)-one] |  | 6.82 | 7.23 |
| CC[C@@H](Nc1c(-c2nc3cnc(N(C)C)cc3[nH]2)c(=O)[nH]c2cn(C)nc12)c1ncccn1 [Compound 21, (R)-6-(6-(dimethylamino)-1H-imidazo[4,5-c]pyridin-2-yl)-2-methyl-7-((1-(pyrimidin-2-yl)propyl)amino)-2H-pyrazolo[4,3-b]pyridin-5 (4H)-one] |  | 5.91 | 6.46 |
| CCn1cc2[nH]c(=O)c(-c3nc4cc(OC)c(OC)cc4[nH]3)c(N[C@@H](C)c3ncccn3)c2n1 [Compound 37, (S)-6-(5,6-dimethoxy-1H-benzo[d]imidazol-2-yl)-2-ethyl-7-((1-(pyrimidin-2-yl)ethyl)-amino)-2H-pyrazolo[4,3-b]pyridin-5 (4H)-one] |  | 8.74 | 9.17 |

Reference: patent US11384099B2, “Pyrazolopyridinone compounds” (Janssen Pharmaceutica NV, priority 2017, dated 2022)
